pIC50: −log10 of the molar value. Values after ≈ are worked out from the molar mass of the structure shown. Values joined by “and” are separate entries in the source; they are usually repeats but may differ in a detail not shown here. Identical values can stand only once. Like-named read-outs stand apart in the source and are kept apart here.
Columns and labels:
[1] = biological target: Epithelial Cell Kinase (ECK) (Homo sapiens, UniProt P29317); test: Inhibition of Epithelial Cell Kinase (ECK), immobilized biotinylated peptide, HRP anti-phosphotyrosine readout; type: biochemical; settings: IC50, substrate phosphorylation
Experimental: In this standard pharmacological test procedure, a biotinylated peptide substrate is first immobilized on neutravidin-coated microtiter plates. The test drug, the Epithelial Cell Kinase (ECK), Mg^++, sodium vanadate (a protein tyrosine phosphatase inhibitor), and an appropriate buffer to maintain pH (7.2) are then added to the immobilized substrate-containing microtiter wells. ATP is then added to initiate phosphorylation. After incubation, the assay plates are washed with a suitable buffer leaving behind phosphorylated peptide which is exposed to horse radish peroxidase (HRP)-conjugated anti-phosphotyrosine monoclonal antibody. The antibody-treated plates are washed again and the HRP activity in individual wells is quantified as a reflection of degree of substrate phosphorylation. […] Multiple entries for a given compound indication it was tested multiple times.

[2] = biological target: T1, Kinase insert Domain containing Receptor (KDR: the catalytic domain of the VEGF receptor) (Homo sapiens, UniProt P35968); test: Inhibition of Kinase insert Domain containing Receptor (KDR), radioactive phosphorylation of Glu:Tyr copolymer; type: biochemical; settings: IC50, substrate phosphorylation
T1 construct: KDR: the catalytic domain of the VEGF receptor
Experimental: In this standard pharmacological test procedure, KDR protein is mixed, in the presence or absence of a inhibitor compound, with a substrate peptide to be phosphorylated (a copolymer of glutamic acid and tyrosine, E:Y :: 4:1) and other cofactors such as Mg^++ and sodium vanadate (a protein tyrosine phosphatase inhibitor) in an appropriate buffer to maintain pH (7.2). ATP and a radioactive tracer (either P^32- or P^33- labeled ATP) is then add to initiate phosphorylation. After incubation, the radioactive phosphate associated with the acid-insoluble fraction of the assay mixture is then quantified as reflection of substrate phosphorylation. […] Multiple entries for a given compound indication it was tested multiple times.

[3] = test system: A431; test: Inhibition of Cancer Cell Growth as Measured by Cell Number (Sulforhodamine B); type: cell-based, Human; settings: 48 hours exposure; for IC50: Homo sapiens, A-431, 48 h
Experimental: (§1) Human tumor cell lines were plated in 96-well plates (250 µl/well, 1-6 x 10^4 cells/ml) in RPMI 1640 medium, containing 5% FBS (Fetal Bovine Serum). […] After 48 hours exposure to test compounds, cells were fixed with trichloroacetic acid, and stained with Sulforhodamine B. After washing with trichloroacetic acid, bound dye was solubilized in 10 mM Tris base and optical density was determined using plate reader. Under conditions of the assay the optical density is proportional to the number of cells in the well. […] The test procedure is described in details by Philip Skehan et. al, J.Natl. Canc. Inst., 82, 1107-1112 (1990). […] Information about some of the cell lines used in these test procedures is available from the American Type Tissue Collection: Cell Lines and Hybridomas, 1994 Reference Guide, 8th Edition.

[4] = test system: MDA-MB-435; test: as above; type: cell-based, Human; settings: 48 hours exposure; for IC50: Homo sapiens, MDA-MB-435, 48 h
Experimental: as §1

[5] = test system: SK-BR3; test: as above; type: cell-based, Human; settings: 48 hours exposure; for IC50: Homo sapiens, SK-BR-3, 48 h
Experimental: as §1

[6] = test system: SW620; test: as above; type: cell-based, Human; settings: 48 hours exposure; for IC50: Homo sapiens, SW-620, 48 h
Experimental: as §1

[7] = test system: 3T3/c-erbb2; test: as above; type: cell-based; settings: 48 hours exposure
Experimental: as §1

[8] = test system: 3T3; test: as above; type: cell-based; settings: 48 hours exposure; for IC50: Mus musculus, NIH3T3
Experimental: as §1

[9] = biological target: T2, epidermal growth factor receptor kinase (EGF-R Kinase, recombinant enzyme; His-tagged cytoplasmic domain of EGFR) (Homo sapiens, UniProt P00533); test: Inhibition of Epidermal Growth Factor Receptor Kinase (EGF-R) using recombinant enzyme, RR-SRC peptide phosphorylation, 33P-ATP; type: biochemical; settings: for inhibition at 0.5 µM: read-out: %Inh @ 0.5 µM; for pIC50: recombinant enzyme, 90 min at room temperature
T2 construct: EGFR cDNA encoding amino acids 645 - 1186 preceded by Met-Ala-(His)6; Met-Ala-(His)6 (N); made in house; host or cells: Sf9 insect cells, recombinant baculovirus vHcEGFR52
Experimental: Representative test compounds were evaluated for their ability to inhibit the phosphorylation of the tyrosine residue of a peptide substrate catalyzed by the enzyme epidermal growth factor receptor kinase. The peptide substrate (RR-SRC) has the sequence arg-arg-leu-ile-glu-asp-ala-glu-tyr-ala-ala-arg-gly. The enzyme used in this test procedure is the His-tagged cytoplasmic domain of EGFR. A recombinant baculovirus (vHcEGFR52) was constructed containing the EGFR cDNA encoding amino acids 645 - 1186 preceded by Met-Ala-(His)6. Sf9 cells in 100 mm plates were infected at an moi of 10 pfu/cell and cells were harvested 48 h post infection. A cytoplasmic extract was prepared using 1% Triton X-100 and applied to Ni-NTA column. After washing the column with 20 mM imidazole, HcEGFR was eluted with 250 mM imidazole (in 50 mM Na2HPO4, pH 8.0, 300 mM NaCl). Fractions collected were dialyzed against 10 mM HEPES, pH 7.0, 50 mM NaCl, 10% glycerol, lug/mL antipain and leupeptin and 0.1 mM Pefabloc SC. The protein was frozen in dry ice/methanol and stored -70°C.
Test compounds were made into 10 mg/mL stock solutions in 100% dimethylsulfoxide (DMSO). Prior to experiment, stock solutions were diluted to 500 uM with 100% DMSO and then serially diluted to the desired concentration with HEPES buffer (30 mM HEPES pH 7.4).
For the enzyme reaction, 10 uL of each inhibitor (at various concentrations) were added to each well of a 96-well plate. To this was added 3 uL of enzyme (1:10 dilution in 10mM HEPES, pH 7.4 for final cone. of 1:120). This was allowed to sit for 10 min on ice and was followed by the addition of 5 ul peptide (80 uM final cone.), 10ul of 4X Buffer (Table A), 0.25 uL ^33P-ATP and 12 uL H2O. The reaction was allowed to run for 90 min at room temperature and was followed by spotting the entire volume on to precut P81 filter papers. The filter discs were washed 2X with 0.5% phosphoric acid and radioactivity was measured using a liquid scintillation counter.
The inhibition data for representative compounds of the invention are shown below in TABLE 1. […] The % inhibition of the test compound was determined for at least three different concentrations and the IC50 value was evaluated from the dose response curve. […] CPM(control) is in units of counts per minute and was a number expressing the amount of radiolabled ATP (γ-^33P) incorporated into the RR-SRC peptide substrate by the enzyme after 90 minutes at room temperature in the absence of test compound as measured by liquid scintillation counting. The CPM values were corrected for the background counts produced by ATP in the absence of the enzymatic reaction. […]

[10] = biological target: Recombinant human MEK 1 (MAPKK) / recombinant human ERK2 (MAPK) (Mek-Erk) (Homo sapiens, UniProt P28482+Q02750); test: Mitogen Activated Protein Kinase (MAPK) assay, two component coupled Mek-Erk test; type: biochemical; settings: for pIC50: read-out: Mek-Erk; for IC50: read-out: Mek-Erk µM
Chain of Recombinant human MEK 1 (MAPKK) / recombinant human ERK2 (MAPK) (Mek-Erk) (P28482 2-360): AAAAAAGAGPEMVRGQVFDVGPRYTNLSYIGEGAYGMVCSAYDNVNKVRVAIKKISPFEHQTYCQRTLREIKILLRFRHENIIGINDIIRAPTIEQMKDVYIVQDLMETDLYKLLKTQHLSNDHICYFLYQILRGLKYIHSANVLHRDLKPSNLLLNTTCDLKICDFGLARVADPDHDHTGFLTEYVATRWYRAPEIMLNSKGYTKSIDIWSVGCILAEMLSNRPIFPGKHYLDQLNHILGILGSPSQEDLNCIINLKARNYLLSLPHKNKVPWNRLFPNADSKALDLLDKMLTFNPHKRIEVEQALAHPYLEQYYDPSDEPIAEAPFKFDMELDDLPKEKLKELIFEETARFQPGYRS
Chain of Recombinant human MEK 1 (MAPKK) / recombinant human ERK2 (MAPK) (Mek-Erk) (Q02750 whole entry): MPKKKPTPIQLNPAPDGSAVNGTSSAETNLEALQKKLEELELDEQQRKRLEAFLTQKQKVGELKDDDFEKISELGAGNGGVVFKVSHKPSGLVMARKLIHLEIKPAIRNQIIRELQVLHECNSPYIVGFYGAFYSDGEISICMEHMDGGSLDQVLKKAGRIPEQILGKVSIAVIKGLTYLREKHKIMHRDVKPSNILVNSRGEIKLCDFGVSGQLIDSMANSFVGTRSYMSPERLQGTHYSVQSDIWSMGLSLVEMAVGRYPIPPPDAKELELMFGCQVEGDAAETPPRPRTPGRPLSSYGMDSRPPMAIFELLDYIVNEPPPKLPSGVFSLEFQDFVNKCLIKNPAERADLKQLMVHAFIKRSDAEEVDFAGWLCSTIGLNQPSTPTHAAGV
Experimental: To evaluate inhibitors of the MAP (mitogen activated protein) kinase a two component coupled standard pharmacological test procedure, which measures phosphorylation of a serine/threonine residue in an appropriate sequence in the substrate in the presence and absence of a putative inhibitor, was used. Recombinant human MEK 1 (MAPKK) was first used to activate recombinant human ERK2 (MAPK) and the activated MAPK (ERK) was incubated with substrate (MBP peptide or MYC peptide) in the presence of ATP, Mg^+2 and radiolabeled ^33P ATP. The phosphorylated peptide was captured on a P 81 phosphocellulose filter (paper filter or embedded in microtiter plate) washed and counted by scintillation methods.
The peptide substrates used in the assay are MBP, peptide substrate ([sequence]), or synthetic Myc substrate, ([sequence]•5 TFA. The recombinant enzymes used were prepared as GST fusion proteins of human ERK 2 and human MEK 1. Inhibitor samples were prepared as 10X stocks in 10% DMSO and an appropriate aliquot was used to deliver either 10 ug/ml for a single point screening dose or 100, 10, 1, and 0.1 uM final concentration for a dose response curve. Final DMSO concentrations were less than or equal to 1%.
The reaction was run as follows in 50 mM Tris kinase buffer, pH 7.4 in a reaction volume of 50 ul. The appropriate volume of kinase buffer and inhibitor sample was added to the tube. Appropriate dilution of enzyme was delivered to give 2-5 ug recombinant MAPK (Erk ) per tube. The inhibitor was incubated with MAPK (Erk) for 30 min at 0° C. Recombinant Mek (MAPKK) ( 0.5-2.5 ug) or fully activated Mek (0.05-0.1 units) was added to activate the Erk and incubated for 30 min at 30° C. Then substrate and gamma ^33P ATP was were added to give a final concentration of 0.5- 1 mM MBPP or 250-500 uM Myc; 0.2-0.5 uCi gamma P 33 ATP/tube; 50 µM ATP final concentration. Samples were incubated at 30°C for 30 minutes and the reaction was stopped by adding 25 µl of ice cold 10 %TCA .After samples were chilled on ice for 30 min, 20 µl of sample was transferred onto P 81 phosphocellulose filter paper or appropriate MTP with embedded P 81 filter. Filter papers or MTP were washed 2 times with a large volume of 1% acetic acid, then 2 times with water. The filters or MTP were briefly air dried before addition of scintillant and samples were counted in the appropriate scintillation counter set up for reading ^33P isotope.
The raw data was captured as cpm. Sample replicates were averaged and corrected for background count. Mean cpm data was tabulated by group and % inhibition by a test compound was calculated as (corrected cpm control- corrected. cpm sample/control) X 100 = % inhibition.

T1 sequence (P35968 834-1162 limits assumed): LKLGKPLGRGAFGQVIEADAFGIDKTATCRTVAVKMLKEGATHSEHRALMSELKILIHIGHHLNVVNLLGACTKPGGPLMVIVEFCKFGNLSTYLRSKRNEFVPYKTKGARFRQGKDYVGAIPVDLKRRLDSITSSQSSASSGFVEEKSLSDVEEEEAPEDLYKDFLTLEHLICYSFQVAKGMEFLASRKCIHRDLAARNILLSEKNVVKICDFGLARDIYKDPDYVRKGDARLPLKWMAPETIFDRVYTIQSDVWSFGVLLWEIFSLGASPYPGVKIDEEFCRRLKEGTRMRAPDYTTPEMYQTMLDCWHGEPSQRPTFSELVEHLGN
Chain of Epithelial Cell Kinase (ECK) (P29317 24-976, species assumed): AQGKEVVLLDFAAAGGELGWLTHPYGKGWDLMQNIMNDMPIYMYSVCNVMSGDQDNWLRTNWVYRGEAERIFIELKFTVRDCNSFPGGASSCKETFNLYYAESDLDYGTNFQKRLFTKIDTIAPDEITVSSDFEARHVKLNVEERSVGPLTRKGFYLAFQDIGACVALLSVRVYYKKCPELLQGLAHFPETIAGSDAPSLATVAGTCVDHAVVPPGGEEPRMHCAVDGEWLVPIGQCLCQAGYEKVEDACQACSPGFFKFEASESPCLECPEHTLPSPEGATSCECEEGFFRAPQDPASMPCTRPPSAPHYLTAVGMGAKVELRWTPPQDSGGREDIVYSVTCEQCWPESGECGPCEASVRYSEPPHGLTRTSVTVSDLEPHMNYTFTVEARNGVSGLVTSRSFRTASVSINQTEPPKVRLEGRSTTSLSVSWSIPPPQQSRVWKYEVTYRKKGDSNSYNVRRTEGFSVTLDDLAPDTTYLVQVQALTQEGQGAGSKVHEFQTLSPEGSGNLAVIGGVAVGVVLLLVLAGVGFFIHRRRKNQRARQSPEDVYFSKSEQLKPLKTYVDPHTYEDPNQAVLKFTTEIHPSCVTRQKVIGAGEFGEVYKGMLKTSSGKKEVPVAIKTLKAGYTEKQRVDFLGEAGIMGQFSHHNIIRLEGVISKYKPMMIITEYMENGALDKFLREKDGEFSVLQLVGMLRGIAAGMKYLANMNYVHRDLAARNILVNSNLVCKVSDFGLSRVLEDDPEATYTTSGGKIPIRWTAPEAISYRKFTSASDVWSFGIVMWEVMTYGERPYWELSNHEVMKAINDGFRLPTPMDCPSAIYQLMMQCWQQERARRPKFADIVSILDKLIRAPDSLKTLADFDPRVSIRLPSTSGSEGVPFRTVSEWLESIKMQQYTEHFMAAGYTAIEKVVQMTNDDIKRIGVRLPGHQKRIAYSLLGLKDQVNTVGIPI
T2 sequence (P00533 669-1210): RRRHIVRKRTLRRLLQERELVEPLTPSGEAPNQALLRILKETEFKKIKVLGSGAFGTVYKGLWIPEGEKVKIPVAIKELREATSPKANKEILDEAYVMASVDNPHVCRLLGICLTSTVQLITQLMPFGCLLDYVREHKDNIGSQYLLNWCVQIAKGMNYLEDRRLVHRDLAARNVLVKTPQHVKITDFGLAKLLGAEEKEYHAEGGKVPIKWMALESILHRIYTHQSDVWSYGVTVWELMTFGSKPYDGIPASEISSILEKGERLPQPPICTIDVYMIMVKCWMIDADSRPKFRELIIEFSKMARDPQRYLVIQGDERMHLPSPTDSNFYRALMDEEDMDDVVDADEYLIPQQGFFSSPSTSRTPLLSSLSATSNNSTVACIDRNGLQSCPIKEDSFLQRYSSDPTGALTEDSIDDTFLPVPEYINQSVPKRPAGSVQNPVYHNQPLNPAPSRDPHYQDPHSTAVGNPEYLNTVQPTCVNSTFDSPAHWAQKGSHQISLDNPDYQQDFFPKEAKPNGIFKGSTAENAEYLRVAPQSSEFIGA

Compound	pIC50 [1]	pIC50 [2]	inhibition at 0.5 µM [9] [%]	pIC50 [9]	pIC50 [10]	also measured
4-(2,3-Dihydro-benzo[1,4]dioxin-6-ylamino)-6,7-diethoxy-quinoline-3-carbonitrile [Example 105]	< 4.29	4.12	–	–	–	IC50 µg/mL A431 [3]: 0.270 µg/mL; IC50 µg/mL MDA-MB-435 [4]: 0.235 µg/mL; IC50 µg/mL SK-BR3 [5]: 0.281 µg/mL; IC50 µg/mL SW620 [6]: 0.411 µg/mL; IC50 µg/mL 3T3/c-erbb2 [7]: 0.375 µg/mL; IC50 µg/mL 3T3 [8]: 0.853 µg/mL
COCCOc1cc2ncc(C#N)c(Nc3ccc4cn[nH]c4c3)c2cc1OCCOC [Example 106, 4-(1H-Indazol-6-ylamino)-6,7-bis-(2-methoxy-ethoxy)-quinoline-3-carbonitrile]	< 4.34	4.64	–	–	–	IC50 [3]: 1.96 µg/mL (≈ 4.52 µM); IC50 [4]: 2.04 µg/mL (≈ 4.72 µM); IC50 [5]: > 5 µg/mL; IC50 [6]: > 5 µg/mL; IC50 [7]: > 5 µg/mL; IC50 [8]: > 5 µg/mL
CCOc1cc2ncc(C#N)c(Nc3ccc4c(=O)[nH][nH]c(=O)c4c3)c2cc1OCC [Example 107, 4-(1,4-Dioxo-1,2,3,4-tetrahydro-phthalazin-6-ylamino)-6,7-diethoxy-quinoline-3-carbonitrile]	< 4.32	< 4.14	–	–	–	IC50 [3]: > 5 µg/mL; IC50 [4]: > 5 µg/mL; IC50 [5]: > 5 µg/mL; IC50 [6]: > 5 µg/mL; IC50 [7]: > 5 µg/mL; IC50 [8]: > 5 µg/mL
COc1cc2ncc(C#N)c(Nc3ccc4c(C)cc(=O)[nH]c4c3)c2cc1OC [Example 129, 6,7-Dimethoxy-4-(4-methyl-2-oxo-1,2-dihydro-quinolin-7-ylamino)-quinoline-3-carbonitrile]	< 4.59	< 4.59	6.7	< 6.00	< 4.00	–
COc1cc2ncc(C#N)c(Nc3ccc4sc(C)nc4c3)c2cc1OC [Example 130, 6,7-Dimethoxy-4-(2-methyl-benzothiazol-5-ylamino)-quinoline-3-carbonitrile]	< 4.58	< 4.58	5	< 6.00	< 4.00	–
COc1cc2ncc(C#N)c(Nc3ccc4[nH]c(=O)sc4c3)c2cc1OC [Example 131, 6,7-Dimethoxy-4-(2-oxo-2,3-dihydro-benzothiazol-6-ylamino)-quinoline-3-carbonitrile]	< 4.58	< 4.58	0	< 6.00	< 4.00	–
COc1cc2ncc(C#N)c(Nc3cccc4ncccc34)c2cc1OC [Example 132, 6,7-Dimethoxy-4-(quinolin-5-ylamino)-quinoline-3-carbonitrile]	< 4.55	< 4.55	0	< 6.00	4.05	–
COc1cc2ncc(C#N)c(Nc3cccc4cnccc34)c2cc1OC [Example 133, 4-(Isoquinolin-5-ylamino)-6,7-dimethoxy-quinoline-3-carbonitrile]	< 4.55	< 4.55	0	< 6.00	4.05	–
COc1cc2ncc(C#N)c(Nc3cccc4cccnc34)c2cc1OC [Example 134, 6,7-Dimethoxy-4-(quinolin-8-ylamino)-quinoline-3-carbonitrile]	< 4.55	< 4.55	35	< 6.00	< 4.00	–
COc1cc2ncc(C#N)c(Nc3ccc(O)c4ncccc34)c2cc1OC [Example 135, 4-(8-Hydroxy-quinolin-5-ylamino)-6,7-dimethoxy-quinoline-3-carbonitrile]	6.27	4.57	0	< 6.00	< 4.00	–
COc1ccc2ncc(C#N)c(Nc3ccc4cn[nH]c4c3)c2c1 [Example 141, 4-(1H -Indazol 6-ylamino)-6-methoxy-quinoline-3-carbonitrile]	< 4.50	4.20	5.5	< 6.00	5.96 and 5.70	–
COc1ccc2ncc(C#N)c(Nc3ccc4nn[nH]c4c3)c2c1 [Example 142, 4-(3H -Benzotriazol-5-ylamino)-6-methoxy-quinoline-3-carbonitrile]	< 4.50	4.02	24	< 6.00	4.52	–
COc1ccc2c(Nc3ccc4nn[nH]c4c3)c(C#N)cnc2c1 [Example 144, 4-(3H -benzotriazol-5-ylamino)-7-methoxy-quinoline-3-carbinitile]	< 4.50	< 4.02 and 4.02	14	< 6.00	–	IC50 [10]: > 100 µM
COc1cccc2c(Nc3ccc4cn[nH]c4c3)c(C#N)cnc12 [Example 148, 4-(1H -Indazol-6-ylamino)-8-methoxy-quinoline-3-carbonitrile]	< 4.20	< 4.02	11	< 6.00	< 4.00	–
COc1cccc2c(Nc3ccc4nn[nH]c4c3)c(C#N)cnc12 [Example 149, 4-(3H -benzotriazol-5-ylamino)-8-methoxy-quinoline-3-carbonitrile]	< 4.50	< 4.02	9	< 6.00	–	IC50 [10]: > 100 µM
COc1cc2ncc(C#N)c(Nc3ccc4ncccc4c3)c2cc1OC [Example 153, 6,7-Dimethoxy-4-(quinoline-6-ylamino)-quinoline-3-carbonitrile]	< 4.55	< 4.55	14	< 6.00	< 4.00	–
COc1cc2c(Nc3ccc4nn[nH]c4c3)c(C#N)cnc2c(OC)c1OC [Example 156, 4-(3H-Benzotriazol-5-ylamino)-6,7,8-Trimethoxy-quinoline-3-carbonitrile]	< 4.58	< 4.10	34	< 6.00	–	IC50 [10]: 35 µM

Reference: EP1117659B1, “SUBSTITUTED 3-CYANOQUINOLINES AS PROTEIN TYROSINE KINASES INHIBITORS” (Wyeth Holdings Corporation, priority 1998, dated 2000)
